Measurements taken from US10947598B2, “Methods for determining the metabolic status of lymphomas” (INSERM (Institut National de la Sante et de la Recherche …, priority 2015, dated 2021).
Entries after “also recorded” stand apart in the source; their conditions may differ.

Columns and labels:
[1] = tested on: Eμ-Myc cells (mouse primary B lymphoma cells), gapdh^low vs gapdh^high; experiment: Cell death assay (DAPI staining, flow cytometry); format: cell-based
Method: C57BL/6 Eμ-Myc transgenic mice were purchased from the Jackson Laborator.
Eμ-Myc cells (0.2×10^6) were seeded in 96 well-plates in the presence or absence of 200 μM of phenformin (Sigma) for 24 hours and 48 hours. Cells were then labeled with DAPI (Molecular Probes; 0.5 μg/mL) and analyzed immediately by flow cytometry using a MACSQuant Analyzer (Miltenyi Biotec).

[2] = tested on: Eμ-Myc-gapdh^low lymphoma; experiment: Animal study: lymphoma transfer of Eμ-Myc-gapdh^low cells into syngeneic C57BL/6 mice; format: in vivo, mouse; settings: Eμ-Myc-gapdh^low-bearing mice; 200 mg/kg/day phenformin in drinking water for 12 days; FIG. 5
Method: Lymphoma transfer of a isolated Eμ-Myc clone was realized into syngeneic, nontransgenic, 6-week-old C57BL/6 females by tail vein injection of 0.1×10^6 viable Eμ-Myc lymphoma cells per recipient mouse (in 150 μL of sterile PBS). Phenformin treated group received 200 mg/kg/day phenformin in the drinking water for 12 days. Phenformin powder was dissolved every two days in the drinking water, taking into account the mouse body weight and the volume of water consumed each day. Untreated mice (controls) received water (n=10 mice/group). Food was given ad libitum. The first signs of the pathology were determined by inguinal lymph node palpation and analyses of blood sample with Hemavet 950FS (Drew Scientific, INC, France). Progression-free survival was determined by the time between the iv injection of the cell and the appearance of enlarged lympho nodes. Lymphoma-bearing animals were killed by cervical dislocation as soon as they presented signs of illness. Upon sacrifice all lymph node tumors and spleen are immediately collected and weighted. All mice were maintained in specific pathogen-free conditions and experimental procedures were approved by the Institutional Animal Care and Use Committee and by the regional ethics committee (PEA232 from Comité Institutionnel d'Ethique Pour l'Animal de Laboratoire—AZUR).

[3] = tested on: Eμ-Myc cells (mouse primary B lymphoma cells), gapdh^low vs gapdh^high; experiment: Proliferation assay (proliferation index, DAPI exclusion); format: cell-based; settings: phenformin 50 μM, 24 and 48 hours
Method: Mouse primary Eμ-Myc clones (B lymphoma cells) obtained from lymphomas of different C57BL/6 Eμ-Myc transgenic mice were isolated as described previously (Lindemann et al., 2007) and maintained in DMEM supplemented with 10% FCS, 2-mercaptoethanol (50 μM), L-asparagin (0.37 mM) and HEPES (pH 7.4, 10 mM). C57BL/6 Eμ-Myc transgenic mice were purchased from the Jackson Laborator.
Eμ-Myc cells (0.2×10^6) were seeded in 96 well-plates in the presence or absence of 50 μM of Phenformin for 0, 24 and 48 hours. Number of living and dead cells was counted using DAPI staining exclusion by flow cytometry (MACSQuant Analyser, Miltenyi Biotec). Proliferation index were calculated by dividing the number of living cells obtained for each day by the one obtained the day of seeding (day 0).

| Compound | Sensitivity to L-asparaginase (cell death) ([1]; Eμ-Myc-gapdh^high cells silenced for gapdh (shgapdh) vs control, L-asparaginase 0.3 UI/ml, 24 hours, FIG. 4C) | Sensitivity to L-asparaginase (cell death) ([1]; Eμ-Myc-gapdh^low vs Eμ-Myc-gapdh^high clones, L-asp 0.3 UI/ml, 1.0 UI/ml, 24 hours, FIG. 3C) | B lymphoma progression (progression-free survival, size of axillary lymphomas and spleen) [2] | Sensitivity to phenformin (proliferation index) ([3]; Eμ-Myc-gapdh^high cells silenced for gapdh (shgapdh) vs control, FIG. 4B) | Sensitivity to phenformin (proliferation index) ([3]; Eμ-Myc-gapdh^low vs Eμ-Myc-gapdh^high clones, FIG. 3B) | Sensitivity to phenformin (cell death) ([1]; Eμ-Myc-gapdh^high cells silenced for gapdh (shgapdh) vs control, phenformin 100 μM, 24 and 48 hours, FIG. 4A) | Sensitivity to phenformin (cell death) ([1]; Eμ-Myc-gapdh^low vs Eμ-Myc-gapdh^high clones, phenformin 200 μM, 24 hours, FIG. 3A) |
| --- | --- | --- | --- | --- | --- | --- | --- |
| L-asparaginase | more sensitive; also recorded: sensitizes | more sensitive | – | – | – | – | – |
| [H]/N=C(/N)N/C(=N/[H])NCCc1ccccc1 [phenformin] | – | – | reduced | more sensitive | more sensitive | more sensitive; also recorded: sensitizes | more sensitive |
